From publication PMC8776894 (Communications Biology, 2022)
“And” between values parts separate entries of the source, which are not always exact repeats. Equal entries are not always repeated. Where two headings read alike, the source gives them in different places.

Assays:
[1] = system: pyramidal neurons of mouse neocortex; format: in vivo; settings: for Fig.6g mEPSC amplitude per recorded neuron: individual values
[2] = system: HT22 hippocampal neuron cells; assay: CCK-8 cytotoxicity in HT22 cells; settings: CCK8 assay
mice = assay: Coagulation function (PT, APTT, TT, FIB) in acute toxicity test; format: in vivo, mouse; settings: VK 1.5-384 mg/kg single i.p., after 14th day
Protocol: Platelet aggregation function test. Venous blood from (normal healthy rabbits) was collected in 3 mL sodium citrate anticoagulation vacuum plastic tubes. The collected venous blood was centrifuged for 10 min at 100 × g at 4℃ to obtain the upper plasma, and the platelet rich plasma (PRP) was prepared, centrifuged again for 10 min at 2000 × g at 4°C to draw the upper plasma, the platelet poor plasma (PPP) was prepared and […] to a platelet concentration of 3×10^8 cells/ml was counted. The adjusted PRP was placed into a four-channel platelet aggregation instrument (Agg RAM, Helena Laboratories, USA) to determine the 5 min maximum platelet aggregation rate with adenosine diphosphate (ADP), arachidonic acid (AA), thrombin, collagen (COL) , and platelet-activating factor (PAF) or saline as inducers (at a final […]
Acute toxicity test. Systemic acute toxicity test by peritoneal injection was performed according to the guideline provided by Center for Drug Evaluation and Research. In addition to the normal group, male mice were randomly divided into the treated groups received a single dose of 1.5 mg/kg, 6 mg/kg, 24 mg/kg, 96 mg/kg and 384 body weight of VK. […]
The obtained plasma was analyzed using an automatic coagulation apparatus (CA1500). […]

[3] = system: MCAO/R mice, brain homogenate; assay: Biochemical kits, energy metabolism in brain (ATP, lactic acid); format: in vivo, mouse
Protocol: Mice were sacrificed under ether anesthesia 3 days after stroke. The brain was collected, weighed, and placed in a homogenizer for homogenization. Using 0.9% normal saline (NS) as a homogenization medium, a 10% tissue homogenate was prepared, centrifuged at 3500 rpm for 10 min, and the supernatant was taken. […] Kits for ATP, glutamic acid, glutathione, lactic acid, LPO, MDA, and SOD were purchased from Nanjingjiancheng Bioengineering Institute, and were measured as previously described for specification.

MCAO/R mice = settings: mouse, in vivo
BV2 cells (OGD/R) = assay: qRT-PCR of proinflammatory mediators; format: cell-based, mouse; settings: RT-PCR
[4] = system: primary cortical neurons and primary microglia; assay: Primary neuron and microglia co-culture, OGD/R, ELISA of proinflammatory factors; format: cell-based, mouse
Protocol: Histological analysis. Organs such as heart, liver, kidney, and brain were excised and fixed in 10% formaldehyde for histological analysis. Their organs were collected and fixed with 4% PFA for 12-18 h, followed by dehydrating using an automatic dehydrator (Leica ASP-300S, Germany) and embedding in paraffin. Then, each sample was coronally cut (4 µm) using a rotatory microtome (Leica RM2245, Germany). The […]
Primary culture of neuron and microglia. Primary cortical neurons (1.0 × 10^5 cells per well in poly-L-lysine-coated 24-well plate) were obtained from fetal C57BL/6 mice of embryonic day 16–17.5, as previously reported1. After careful removal of meninges, cortical tissues were digested in dulbecco's modified eagle medium (DMEM, Gibco) containing 0.05% trypsin (Gibco) at 37 °C for 20 min. DMEM containing 10% FBS (Gibco) was then added to terminate the digestion. The mixture was homogenized by pipetting 120 times and was subsequently filtered with a 100-μm cell strainer (Biologix) and centrifuged at 1000 rpm for 5 min. Then, the cells were collected and resuspended by DMEM supplemented with 10% FBS (Gibco) and penicillin-streptomycin (Gibco).
The suspension was seeded into 24-well plates (10^5 cells/ml), and 4 h later, the medium was changed with Neurobasal medium (Gibco) containing 1% […] and 2% B27 supplement. […]

Gly-Arg-Pro-Hyp-Gly-Phe-Ser-Pro-Phe-Arg-Ile-Asp [VK, Vespakinin-M]
action potential threshold of pyramidal neurons vs vehicle ([1]; 48 h after MCAO): higher action potential threshold
Fig.6g mEPSC amplitude per recorded neuron ([1]; VK150, n = 14): 19.084 pA and 16.328 pA and 11.543 pA and 20.277 pA and 16.752 pA and 17.611 pA and 14.33 pA and 14.518 pA and 18.178 pA and 20.574 pA and 16.408 pA and 17.172 pA and 18.064 pA and 16.721 pA
Fig.6g mEPSC amplitude per recorded neuron ([1]; VK300, n = 18): 16.409 pA and 16 pA and 15.374 pA and 15.042 pA and 15.977 pA and 15.473 pA and 16.722 pA and 19.242 pA and 17.388 pA and 16.685 pA and 16.328 pA and 14.712 pA and 16.978 pA and 16.137 pA and 19.209 pA and 18.238 pA and 16.732 pA and 16.833 pA
amplitude of mEPSCs ([1]; after stroke in mice): no obvious effects on the amplitude of mEPSCs
concentrations at which VK inhibited growth of HT22 cells [2]: 73.5 to 735 µM
four coagulation (PT, APTT, TT, FIB) (mice): No obvious change
LD content in brain vs vehicle [3]: lower LD content
ATP activity in brain vs vehicle ([3]; VK-treated groups): increased ATP activity
neurological deficits and infarct size vs vehicle (antagonist study) (MCAO/R mice): attenuated neurological deficits and infarct size
infarct volume, TTC staining (MCAO/R mice; ip): decreased infarct volume
OGD/R-increased expression of proinflammatory cytokines in BV2 cells (BV2 cells (OGD/R)): remarkably blocked these effects
protection of neurons in co-culture with microglia, proinflammatory cytokines [4]: protects neurons
